Data taken from ChEMBL document CHEMBL2434952, “Morphological changes of some pathogenic microbial strains induced by novel thiadiazole derivatives” (2013).
≈ marks a conversion by molar mass, not a printed value. Calls of active or inactive are those of the source. The calls are words filed in the database; no cut-off is given here.

What was measured:
Bacillus cereus [1] = assay: Antibacterial activity against Bacillus cereus assessed as growth inhibition measured after 24 to 48 hrs by agar disk diffusion method; format: functional
Bacillus cereus [2] = assay: Antibacterial activity against Bacillus cereus assessed as growth inhibition measured after 24 to 48 hrs by agar disk diffusion method in presence of 24.4 Gy gamma-irradiation; format: functional
Candida albicans [3] = assay: Antifungal activity against Candida albicans assessed as growth inhibition measured after 24 to 48 hrs by agar disk diffusion method; format: functional, organism-based
Klebsiella pneumoniae [4] = assay: Antibacterial activity against Klebsiella pneumoniae assessed as growth inhibition measured after 24 to 48 hrs by agar disk diffusion method; format: functional, organism-based
[5] = system: Staphylococcus epidermidis; assay: Antibacterial activity against Staphylococcus epidermidis assessed as growth inhibition measured after 24 to 48 hrs by agar disk diffusion method in presence of 24.4 Gy gamma-irradiation; format: functional
Pseudomonas aeruginosa [6] = assay: Antibacterial activity against Pseudomonas aeruginosa assessed as growth inhibition measured after 24 to 48 hrs by agar disk diffusion method; format: functional, organism-based
[7] = system: Staphylococcus epidermidis; assay: Antibacterial activity against Staphylococcus epidermidis assessed as growth inhibition measured after 24 to 48 hrs by agar disk diffusion method; format: functional
[8] = system: Staphylococcus epidermidis; assay: Antibacterial activity against Staphylococcus epidermidis assessed as growth inhibition measured after 24 to 48 hrs by agar disk diffusion method in absence of 24.4 Gy gamma-irradiation; format: functional
Bacillus cereus [9] = assay: Antibacterial activity against Bacillus cereus assessed as growth inhibition measured after 24 to 48 hrs by agar disk diffusion method in absence of 24.4 Gy gamma-irradiation; format: functional
Staphylococcus aureus [10] = assay: Antibacterial activity against Staphylococcus aureus assessed as growth inhibition measured after 24 to 48 hrs by agar disk diffusion method in presence of 24.4 Gy gamma-irradiation; format: functional
Staphylococcus aureus [11] = assay: Antibacterial activity against Staphylococcus aureus assessed as growth inhibition measured after 24 to 48 hrs by agar disk diffusion method in absence of 24.4 Gy gamma-irradiation; format: functional
Staphylococcus aureus [12] = assay: Antibacterial activity against Staphylococcus aureus assessed as growth inhibition measured after 24 to 48 hrs by agar disk diffusion method; format: functional
Staphylococcus aureus [13] = assay: Antibacterial activity against Staphylococcus aureus assessed as growth inhibition at 30 ug/disk measured after 24 to 48 hrs by agar disk diffusion method in absence of 24.4 Gy gamma-irradiation; format: functional; conditions: light or radiation study, read-out: IZ
[14] = system: Staphylococcus epidermidis; assay: Antibacterial activity against Staphylococcus epidermidis assessed as growth inhibition at 30 ug/disk measured after 24 to 48 hrs by agar disk diffusion method in presence of 24.4 Gy gamma-irradiation; format: functional; conditions: light or radiation study, read-out: IZ
[15] = system: Staphylococcus epidermidis; assay: Antibacterial activity against Staphylococcus epidermidis assessed as growth inhibition at 30 ug/disk measured after 24 to 48 hrs by agar disk diffusion method in absence of 24.4 Gy gamma-irradiation; format: functional; conditions: light or radiation study, read-out: IZ
Bacillus cereus [16] = assay: Antibacterial activity against Bacillus cereus assessed as growth inhibition at 30 ug/disk measured after 24 to 48 hrs by agar disk diffusion method; format: functional; conditions: read-out: IZ
[17] = system: Staphylococcus epidermidis; assay: Antibacterial activity against Staphylococcus epidermidis assessed as growth inhibition at 30 ug/disk measured after 24 to 48 hrs by agar disk diffusion method; format: functional; conditions: read-out: IZ
Bacillus cereus [18] = assay: Antibacterial activity against Bacillus cereus assessed as growth inhibition at 30 ug/disk measured after 24 to 48 hrs by agar disk diffusion method in presence of 24.4 Gy gamma-irradiation; format: functional; conditions: light or radiation study, read-out: IZ
Pseudomonas aeruginosa [19] = assay: Antibacterial activity against Pseudomonas aeruginosa assessed as growth inhibition at 30 ug/disk measured after 24 to 48 hrs by agar disk diffusion method; format: functional; conditions: read-out: IZ
Staphylococcus aureus [20] = assay: Antibacterial activity against Staphylococcus aureus assessed as growth inhibition at 30 ug/disk measured after 24 to 48 hrs by agar disk diffusion method in presence of 24.4 Gy gamma-irradiation; format: functional; conditions: light or radiation study, read-out: IZ
Staphylococcus aureus [21] = assay: Antibacterial activity against Staphylococcus aureus assessed as growth inhibition at 30 ug/disk measured after 24 to 48 hrs by agar disk diffusion method; format: functional; conditions: read-out: IZ
Bacillus cereus [22] = assay: Antibacterial activity against Bacillus cereus assessed as growth inhibition at 30 ug/disk measured after 24 to 48 hrs by agar disk diffusion method in absence of 24.4 Gy gamma-irradiation; format: functional; conditions: light or radiation study, read-out: IZ
Klebsiella pneumoniae [23] = assay: Antibacterial activity against Klebsiella pneumoniae assessed as growth inhibition at 30 ug/disk measured after 24 to 48 hrs by agar disk diffusion method; format: functional; conditions: read-out: IZ
Candida albicans [24] = assay: Antifungal activity against Candida albicans assessed as growth inhibition at 30 ug/disk measured after 24 to 48 hrs by agar disk diffusion method; format: functional, organism-based
Staphylococcus aureus [25] = assay: Antibacterial activity against Staphylococcus aureus assessed as deformity of cell surface at MIC by scanning electron microscopic analysis in presence of 24.4 Gy gamma-irradiation; format: functional, organism-based
Bacillus cereus [26] = assay: Antibacterial activity against Bacillus cereus assessed as aggregation of cellular material at poles at MIC by scanning electron microscopic analysis; format: functional, organism-based
Bacillus cereus [27] = assay: Antibacterial activity against Bacillus cereus assessed as growth inhibition measured for 24 hrs by agar streak dilution method in absence of 24.4 Gy gamma-irradiation; format: functional; conditions: light or radiation study
Bacillus cereus [28] = assay: Antibacterial activity against Bacillus cereus assessed as septum disappearance at MIC by scanning electron microscopic analysis; format: functional, organism-based
Staphylococcus aureus [29] = assay: Antibacterial activity against Staphylococcus aureus assessed as appearance of projected cellular material and membrane blebbing at MIC by scanning electron microscopic analysis; format: functional, organism-based
Staphylococcus aureus [30] = assay: Antibacterial activity against Staphylococcus aureus assessed as growth inhibition measured for 24 hrs by agar streak dilution method in presence of 24.4 Gy gamma-irradiation; format: functional; conditions: light or radiation study
Staphylococcus aureus [31] = assay: Antibacterial activity against Staphylococcus aureus assessed as elongation of cell surface at MIC by scanning electron microscopic analysis in presence of 24.4 Gy gamma-irradiation; format: functional, organism-based
Bacillus cereus [32] = assay: Antibacterial activity against Bacillus cereus assessed as shortening of cell surface at MIC by scanning electron microscopic analysis; format: functional, organism-based
Staphylococcus aureus [33] = assay: Antibacterial activity against Staphylococcus aureus assessed as growth inhibition measured for 24 hrs by agar streak dilution method in absence of 24.4 Gy gamma-irradiation; format: functional; conditions: light or radiation study
Bacillus cereus [34] = assay: Antibacterial activity against Bacillus cereus assessed as elongation of cell surface at MIC by scanning electron microscopic analysis; format: functional, organism-based
Staphylococcus aureus [35] = assay: Antibacterial activity against Staphylococcus aureus assessed as septum disappearance at MIC by scanning electron microscopic analysis; format: functional, organism-based

Row | Molecule | inhibition zone (IZ) (Bacillus cereus [1]) | inhibition zone (IZ) (Bacillus cereus [2]) | growth inhibition (GI) (Candida albicans [3]) | growth inhibition (GI) (Klebsiella pneumoniae [4]) | inhibition zone (IZ) [5] | growth inhibition (GI) (Pseudomonas aeruginosa [6]) | inhibition zone (IZ) [7] | inhibition zone (IZ) [8] | inhibition zone (IZ) (Bacillus cereus [9]) | inhibition zone (IZ) (Staphylococcus aureus [10]) | inhibition zone (IZ) (Staphylococcus aureus [11]) | inhibition zone (IZ) (Staphylococcus aureus [12]) | further results
1 | O=C1CSC(Nc2n[nH]c(=S)s2)=N1 | 9 mm | 11 mm | inactive | inactive | 7 mm | inactive | 7 mm | 7 mm | 11 mm | 15 mm | 12 mm | 10 mm | –
2 | O=C(CCl)Nc1n[nH]c(=S)s1 | inactive | – | inactive | inactive | – | inactive | inactive | – | – | – | – | inactive | –
3 | NS(=O)(=O)c1ccc(NC(=S)Nc2n[nH]c(=S)s2)cc1 | 7 mm | 10 mm | inactive | inactive | 10 mm | inactive | inactive | 6 mm | 7 mm | 10 mm | 10 mm | 9 mm | –
4 | S=c1[nH]nc(/N=C/c2ccccc2Cl)s1 | 22 mm | 16 mm | inactive | inactive | 13 mm | inactive | 12 mm | 13 mm | 20 mm | 16 mm | 16 mm | 20 mm | –
5 | O=C(Nc1ccccc1)Nc1nnc(S)s1 | 7 mm | 9 mm | inactive | inactive | 10 mm | inactive | 9 mm | 7 mm | 7 mm | 10 mm | 7 mm | 10 mm | –
6 | NCC[C@H](O)C(=O)N[C@@H]1C[C@H](N)[C@@H](O[C@H]2O[C@H](CN)[C@@H](O)[C@H](O)[C@H]2O)[C@H](O)[C@H]1O[C@H]1O[C@H](CO)[C@@H](O)[C@H](N)[C@H]1O [AMIKACIN] | – | – | – | – | – | – | – | – | – | – | – | – | zone of inhibition at 30 µg/disc (Staphylococcus aureus [13]): 20 mm; zone of inhibition at 30 µg/disc [14]: 25 mm; zone of inhibition at 30 µg/disc [15]: 24 mm; zone of inhibition at 30 µg/disc (Bacillus cereus [16]): 20 mm; zone of inhibition at 30 µg/disc [17]: 25 mm; zone of inhibition at 30 µg/disc (Bacillus cereus [18]): 20 mm; zone of inhibition at 30 µg/disc (Pseudomonas aeruginosa [19]): 15 mm; zone of inhibition at 30 µg/disc (Staphylococcus aureus [20]): 17 mm; zone of inhibition at 30 µg/disc (Staphylococcus aureus [21]): 20 mm; zone of inhibition at 30 µg/disc (Bacillus cereus [22]): 20 mm; zone of inhibition at 30 µg/disc (Klebsiella pneumoniae [23]): 11 mm
7 | NYSTATIN | – | – | – | – | – | – | – | – | – | – | – | – | inhibition zone (IZ) (Candida albicans [24]): 7 mm
8 | CC(=O)N(C(C)=O)c1n[nH]c(=S)s1 | 20 mm | 20 mm | inactive | inactive | 15 mm | inactive | 13 mm | 11 mm | 11 mm | 17 mm | 20 mm | 20 mm | –
9 | N#Cc1c(-c2ccccc2)cn(-c2n[nH]c(=S)s2)c1N | 20 mm | 25 mm | inactive | inactive | 25 mm | inactive | 17 mm | 12 mm | 25 mm | 19 mm | 20 mm | 25 mm | Activity (Staphylococcus aureus [25]): Active; Activity (Bacillus cereus [26]): Active; MIC (Bacillus cereus [27]): 250 µg/mL (≈ 835 µM); Activity (Bacillus cereus [28]): Active; Activity (Staphylococcus aureus [29]): Active; MIC (Staphylococcus aureus [30]): 250 µg/mL; Activity (Staphylococcus aureus [31]): Active; Activity (Bacillus cereus [32]): Active; MIC (Staphylococcus aureus [33]): 125 µg/mL (≈ 418 µM); Activity (Bacillus cereus [34]): Active; Activity (Staphylococcus aureus [35]): Active
10 | O=C(Nc1ccccc1)Sc1nnc(N(C(=O)Nc2ccccc2)C(=O)Nc2ccccc2)s1 | 7 mm | 9 mm | inactive | inactive | 12 mm | inactive | 7 mm | 8 mm | 7 mm | 7 mm | 7 mm | 15 mm | –
11 | O=C(CNc1n[nH]c(=S)s1)c1ccccc1 | 18 mm | 15 mm | inactive | inactive | 20 mm | inactive | 15 mm | 12 mm | 15 mm | 20 mm | 20 mm | 20 mm | –
12 | O=CN(C=O)c1n[nH]c(=S)s1 | 22 mm | 20 mm | inactive | inactive | 13 mm | inactive | 20 mm | 13 mm | 13 mm | 16 mm | 20 mm | 20 mm | –
